# Results as given in patent publication US4118506A, “Pharmaceutical compositions containing 1,3-dithiol-2-ylidene malonate derivatives” (Nihon Nohyaku Co., Ltd., priority 1976, dated 1978).
# Experiments:
# [1] = system: fatty liver induced by ethionine; test: effect on fatty liver, ethionine model; format: in vivo, mouse (dd-strain); conditions: 250 mg/kg oral, simultaneously with (0 hr) ethionine 200 mg/kg i.p.
# Excerpt: There are known many factors inducing fatty liver. But, the fatty liver is grouped into a couple of patterns from the mechanism of lipid accumulation or metabolism of lipoprotein in the liver. Ethionine is a typical example which induces first pattern of fatty liver. It inhibits RNA and protein synthesis and destroys polysome of the liver cell. Fatty liver is induced by inhibition of the protein synthesis and disturbance of lipoprotein secretion.
# Usually, fatty liver is closely related to the accumulation of triglyceride in the liver. In the present example, the degree of fatty liver and protective or therapeutic effect on the fatty liver was evaluated by measurement of triglyceride content in the liver.
# The compounds of this invention and methionine were independently dissolved or suspended into olive oil and administered orally to the male mouse (4 week-old dd-strain) at the dose of 250 mg/kg. One hour before it, simultaneously with it or one hour after it, ethionine dissolved in equimolar NaOH solution was administered intraperitoneally at the dose of 200 mg/kg. Twenty four hours after the administration of ethionine, the animals were sacrificed and triglyceride content in the liver was determined by chromotropic acid method.
# [2] = system: fatty liver induced by carbon tetrachloride; test: therapeutic effect on fatty liver, carbon tetrachloride model; format: in vivo, rat (SD strain)
# Procedure: Carbon tetrachloride also induces fatty liver, but the picture of disease differs from the case of ethionine-induced fatty liver. Carbon tetrachloride is generally considered to damage microsome and thereby to inhibit protein synthesis and induce fatty liver.
# Carbon tetrachloride was subcutaneously administered to 36 week-old male rats (SD strain) for 4 days at the dose of 1 ml/kg. The treated animals were left for 3 days after the last administration to maximize the manifestation of fatty liver.
# Administration of Compound 4 was commenced on the fourth day after the administration of carbon tetrachloride was completed. It was orally given everyday for 10 days at the dose of 50 or 250 mg/kg. On the 11th day, the animals were sacrificed by exsanguination. The therapeutic effect was evaluated by determining the content of lipid in the liver (triglyceride and total lipid) and examining the histopathological changes. Triglyceride and total lipid were determined colorimetrically by chromotropic acid method and Bragdon's oxidation method, respectively.
# Indices for the histopathological change is as follows: […]
# [3] = system: acute liver damage induced by carbon tetrachloride; test: protective effect on acute liver damage associated with centrilobular necrosis, carbon tetrachloride model; format: in vivo, mouse (dd strain); conditions: 250 mg/kg oral 6 h before CCl4, 24 h after CCl4; for Liver Damage Index: 0 normal, 2 slightly recognized, 4 clearly observable, 6 heavy damage, average of 5 to 6 mice; for p-GPT: values over 1,000 taken as 1,000
# Excerpt: Carbon tetrachloride (CCl4) administration induces centrilobular necrosis of the liver associated with loss of diphosphopyridine nucleotide, hepatic glycogen, coenzyme A and increase in neutral fat. Release of several enzymes from the hepatocytes, and increase of enzyme activities in the plasma are recognized as the result of the damage of the liver. A suitable means for evaluating the degree of damage induced by CCl4 or the degree of protection afforded by drugs is to study the plasma glutamic-pyruvic transaminase (p-GPT) activity.
# Methods: The test compounds were dissolved or suspended in olive oil and administered orally at the dose of 250 mg/kg to the mice (Four-week-old male mice-dd strain). After 6 hours, CCl4 was administered orally (0.05 ml/kg as olive oil solution). Animals were killed 24 hours after CCl4 administration, and the liver was grossly observed. The plasma was obtained by centrifugation. Activities of p-GPT were determined by the method of Reitman and Frankel and expressed in Karmen units.
# Score for liver damage index was as follows:
# Each figure indicates average of 5 to 6 mice. Values of p-GPT over 1,000 Karmen unit regarded as 1,000 for calculation of average for convenience.
# [4] = system: alcohol metabolic function of liver; test: effect on concentration of ethyl alcohol in the blood; format: in vivo, mouse; conditions: 250 mg/kg oral 6 h before ethanol 1,000 mg/kg
# Procedure: The test compounds are dissolved or suspended in olive oil and administered orally at the dose of 250 mg/kg to the mice. After 6 hours, 1,000 mg/kg of ethyl alcohol was given orally. Blood was taken in a capillary from caudal vein at the time indicated in the results. The plasma was obtained by centrifugation. The concentration of ethyl alcohol in the plasma was measured by FID type gas liquid chromatography. Five mice were used for each group.
# [5] = system: acute liver damage induced by chloroform; test: protective effect on acute liver damage associated with centrilobular necrosis, chloroform model; format: in vivo, mouse (dd); conditions: chloroform 0.2 ml/kg oral; 100 mg/kg oral 6 h before; 24 h after
# Procedure: (§1) Bromobenzene (hereinafter abbreviated as BB), Dimethylnitrosamine (hereinafter abbreviated as DMN) and chloroform (hereinafter abbreviated as CF) resemble carbon tetrachloride in inducing liver damage associated with centrilobular necrosis.
# (§2) Test compound or anethol trithion was orally administered to animal at the dose of 100 mg/kg. Twenty four hours after it (in the case of dimethylnitrosamine, exceptionally fifteen hours after it) the animals were sacrificed and blood samples were collected. Indices of hepatotoxicity adoptable in each chemical were measured, from which the efficacy of the compound was evaluated.
# CF male mouse 0.2 oral p-GPT activity
# [6] = system: acute liver damage induced by bromobenzene; test: protective effect on acute liver damage associated with centrilobular necrosis, bromobenzene model; format: in vivo, rat (SD); conditions: bromobenzene 0.75 ml/kg oral; 100 mg/kg oral 6 h before; 24 h after
# Procedure: as §1, §2
# BB male rat 0.75 oral p-GPT activity
# [7] = system: bile flow and excretion of biliary salt; test: cholagogic action: bile flow and biliary salt excretion; format: in vivo, rat (SD-JCL strain); set-up: key to excretion of biliary salt: relative to 1 h pre-drug amount taken as 100
# Procedure: The male rat (4 week-old, SD-JCL strain) was anesthetized with sodium pentobarbital (37.5 mg/kg, intraperitoneal injection). The abdominal cavity was opened through a midline incision. The common bile duct was catheterized with polyethylene tube o.d. 0.8 mm. The catheter was brought to the outside through the abdominal incision wound prior to closing. Bile was collected from the catheter continuously with time intervals of one hour. The quantity of bile produced in one hour was determined by weighing and that of biliary salt was determined by enzymatic method (Ikagaku Jikkenho Koza 1B, Biological Constituents II, edited by Tamino […]). The amount of biliary salts was represented as chloic acid equivalent. In the representation of the results, the quantities of bile and biliary salts produced in one hour prior to the administration of drug were taken as 100. […] As reference, anethol trithion was used.
# [8] = system: acute liver damage induced by allyl alcohol; test: protective effect on acute liver damage associated with periportal necrosis, allyl alcohol model; format: in vivo, mouse (dd strain); conditions: 250 mg/kg oral 6 h before allyl alcohol 0.075 ml/kg oral; 24 h after
# Procedure: The compound of this invention or anethol trithion was orally administered to the male mouse (4 week/old, dd strain) at the dose of 250 mg/kg. Six hours after it, allyl alcohol was orally administered at the dose of 0.075 ml/kg. Twenty four hours after it, the animals were sacrificed to collect blood samples.
# [9] = system: acute liver damage induced by dimethylnitrosamine; test: protective effect on acute liver damage associated with centrilobular necrosis, dimethylnitrosamine model; format: in vivo, mouse (dd); conditions: dimethylnitrosamine 0.05 ml/kg i.p.; 100 mg/kg oral 6 h before; 15 h after
# Procedure: as §1, §2
# DMN male mouse 0.05 intraper-
# [10] = system: acute liver damage induced by D-galactosamine; test: protective effect on acute hepatitis with mesenchymal reaction and discrete lobular necrosis, D-galactosamine model; format: in vivo, rat (SD strain); conditions: 250 mg/kg oral 6 h before D-galactosamine i.p.
# Procedure: D-Galactosamine is a compound which induces a discrete lobular necrosis associated with mesenchymal reaction similar to the change observed in human viral hepatitis, so that it is frequently used in producing a model for viral hepatitis.
# The compound of this invention or anethol trithion was administered orally to the male rat (SD strain) at the dose of 250 mg/kg. Six hours after it, D-galactosamine was intraperitoneally administered at the dose of 600 mg/kg. Four hours after it, an additional 300 mg/kg was administered intraperitoneally. Eight hours after it, the animals were sacrificed to collect the blood samples. P-GPT activity and triglyceride in the liver were measured to evaluate the effect of the compound of this invention.
# [11] = system: glucose metabolic function of liver; test: effect on glucose metabolism (blood sugar); format: in vivo, mouse; conditions: for Blood Sugar: 250 mg/kg oral 6 h before glucose 4.0 g/kg
# Procedure: Methods: The test compounds dissolved in olive oil and administered orally at the dose of 250 mg/kg to the mice. After 6 hours, 4.0 g/kg of glucose was orally administered. The same amount of glucose was given to the control animals. 0.02 ml of blood was taken from caudal vein of the mice at 30, 60, 90 and 120 min. after glucose administration. Blood sugar was measured by the procedure of Somogyi-Nelson. Number of animals used was 5 to 6 mice for each treatment.
smiles,measurement,setting,value
"CSCC[C@H](N)C(=O)O [Methionine, reference compound]",Triglyceride,[1],10.3 ± 0.83 mg/g-liver
same,Total lipid,"[2]; 250 mg/kg, 10 days",146.1 ± 13.0 mg/g-liver
same,Triglyceride,"[2]; 250 mg/kg, 10 days",47.3 ± 7.3 mg/g-liver
same,therapeutic effect against fatty liver,[2]; carbon tetrachloride,hardly exhibited a therapeutic effect
"COC(=O)C(C(=O)OCC(C)C)=C1SC=CS1 [Compound 8, Methyl isobutyl 1,3-dithiol-2-ylidene malonate]",Liver Damage Index,[3],0.6
same,p-GPT,[3],88 Karmen units
"CCOC(=O)C(C(=O)OC(C)C)=C1SC=CS1 [Compound 7, Ethyl isopropyl 1,3-dithiol-2-ylidene malonate]",Liver Damage Index,[3],0.8
same,p-GPT,[3],102 Karmen units
same,Concentration of Ethyl alcohol in Plasma,[4]; 0 min,30 ± 14 ppm
same,Concentration of Ethyl alcohol in Plasma,[4]; 5 min,830 ± 180 ppm
same,Concentration of Ethyl alcohol in Plasma,[4]; 15 min,799 ± 154 ppm
same,Concentration of Ethyl alcohol in Plasma,[4]; 30 min,448 ± 208 ppm
same,Concentration of Ethyl alcohol in Plasma,[4]; 60 min,158 ± 113 ppm
same,Concentration of Ethyl alcohol in Plasma,[4]; 120 min,12 ± 2 ppm
"COc1ccc(-c2cc(=S)ss2)cc1 [Anethol trithion, reference compound]",p-GPT,[5],> 1000 Karmen unit
same,BSP,[6],12.9 ± 5.5 mg/dL
same,p-GPT,[6],28 ± 4.1 Karmen unit
same,p-GPT,[3],38 Karmen units
same,excretion of biliary salt,"[7]; 200 mg/kg oral, 5 hours after treatment, before treatment = 100",33 ± 4.0
same,excretion of biliary salt,"[7]; before treatment, 1 hour, taken as 100 (normalisation)",100
same,BSP,[8],19.3 ± 4.6
same,BSP,[9],17.6 ± 2.7 mg/dL
same,p-GPT,[9],192 ± 54 Karmen unit
same,Triglyceride in the liver,[10],9.2 ± 1.5 mg/g
"CCCOC(=O)C(C(=O)OCCC)=C1SC=CS1 [Compound 3, Di-n-propyl 1,3-dithiol-2-ylidene malonate]",Liver Damage Index,[3],0.1
same,p-GPT,[3],36 Karmen units
COC(=O)C(C(=O)OC)=C1SC=CS1 [Compound 1],Liver Damage Index,[3],0.4
same,p-GPT,[3],138 Karmen units
"CCOC(=O)C(C(=O)OCC)=C1SC=CS1 [Compound 2, Diethyl 1,3-dithiol-2-ylidene malonate]","Blood Sugar, percent of 0 min value",[11]; 0 min,100%
same,Blood Sugar,[11]; 0 min,136 ± 20.4 mg/dL
same,Blood Sugar,[11]; 30 min,295 ± 22.3 mg/dL
same,Blood Sugar,[11]; 60 min,251 ± 19.6 mg/dL
same,Blood Sugar,[11]; 90 min,202 ± 12.3 mg/dL
same,Blood Sugar,[11]; 120 min,158 ± 15.5 mg/dL
same,"Blood Sugar, percent of 0 min value",[11]; 30 min,217%
same,"Blood Sugar, percent of 0 min value",[11]; 60 min,185%
same,"Blood Sugar, percent of 0 min value",[11]; 90 min,149%
same,"Blood Sugar, percent of 0 min value",[11]; 120 min,116%
same,Liver Damage Index,[3],0.2
same,p-GPT,[3],36 Karmen units
CCCCOC(=O)C(C(=O)OCCCC)=C1SC=CS1 [Compound 5],Liver Damage Index,[3],0.4
same,p-GPT,[3],52 Karmen units
CC(C)COC(=O)C(C(=O)OCC(C)C)=C1SC=CS1 [Compound 6],Liver Damage Index,[3],0.4
same,p-GPT,[3],75 Karmen units
